Experimental data reported in PubChem BioAssay AID1963849 (Molecular Pharmacology Branch, DTP, NCI, 2024).

Tested on: 299254-011-R-J1-PDC complex spheroid viability
Assay: Anticancer human tumor 299254-011-R-J1-PDC patient-derived melanoma cell line growth inhibition [POLQ]
Settings: for IC50: curve of first compound; for viability, T/C: stronger effect = lower value
Procedure: Multicellular complex tumor spheroid response to Polymerase (POL) inhibitors (novobiocin, ART-558, RP6685) in combination with a variety of drugs and investigational agents in selected tumor cell lines
The POL inhibitors (novobiocin, ART-558, and RP6685) were evaluated both individually and in combination with standard of care and investigational anticancer small molecules within a complex spheroid model of solid tumors. . Complex spheroids include a stromal component modeled by human endothelial cells (HUVEC) and fibroblasts modeled by human mesenchymal stem cells (MSCs). The concentration ranges selected for each drug and investigational agent were based upon clinically achievable concentrations if the clinical Cmax of the agent was known.
Compounds. The drugs and investigational agents: novobiocin (NSC847541), ART-558 (NSC835418), RP-6685 (NSC848927), peposertib (NSC802822), ceralasertib (NSC780249), elimusertib (NSC800525), camonsertib (NSC841442), AZD-1390 (NSC803789), olaparib (NSC753686), talazoparib (NSC767125), rucaparib (NSC756644), sotorasib (NSC818433), MRTX-1133 (NSC836407), SN-38 (NSC673596), topotecan (NSC609699), epotoside (NSC141540), doxorubicin (NSC123127), gemcitabine (NSC613327), 5-fluorouracil (NSC19893), paclitaxel (NSC125973), vemurafenib (NSC761431), MSA-2 (NSC828583), SN-011 (NSC837082), adavosertib (NSC754352), prexasertib (NSC758257), carboplatin (NSC241240) and oxaliplatin (NSC266046), were obtained from the National Cancer Institute (NCI) Developmental Therapeutics Program Chemical Repository (21). The FDA-approved anticancer drug set is available from the Developmental Therapeutics Program at https://dtp.cancer.gov/organization/dscb/obtaining/. […] The stock solutions were prepared in dimethyl sulfoxide (DMSO, Sigma-Aldrich, St. Louis, MO, cat. D2650), except for the platinum compounds which were prepared in saline (Quality Biological, Gaithersburg, MD, cat. 114-055-101), at 800-fold the tested concentration and stored at -70 degrees C prior to their use. All drugs and investigational agents were tested over a range starting from a high concentration at or near the clinical Cmax and decreasing in half-log increments. If the clinical Cmax for an agent had not been determined, the highest concentration tested was 10 microM, except for SN-38, which was tested at a high concentration of 1 microM.
Cell Culture. All cells were maintained in an incubator at 37 degrees C and 5% CO2 with 95% humidity. The PDC lines were cultured according to standard operating procedures established by the NCI PDMR (https://pdmr.cancer.gov). Table 3 of the manuscript, lists the cell lines along with the number of the three cell types plated to form the mct-spheroids and media for tumor cell growth. After thawing, all PDC lines, except 997537-175-T-J1-PDC and 415267-285-R-J2-PDC, were cultured in Matrigel-coated flasks prepared with a working solution of 1X Ham's F-12 nutrient mix, without supplementation (Thermo Fisher Scientific, cat. 11765054), 100 U/mL penicillin-streptomycin (Thermo Fisher Scientific, cat. 15140122), and 2.5% Matrigel (Corning Inc., Corning, NY, cat. 354248) for the first three passages. The two PDC lines 997537-175-T-J1-PDC and 415267-285-R-J2-PDC were cultured on uncoated flasks. The 857933-349-R-J2-PDC line was cultured in 6C/Colon 1B media containing advanced DMEM/F-12 (Thermo Fisher Scientific, cat. 12634028), 10 mM HEPES (Thermo Fisher Scientific, cat. 15630080), 1X GlutaMAX supplement (Thermo Fisher Scientific, cat. 35050061), 0.1 mg/mL primocin (InvivoGen, San Diego, CA, cat. ant-pm-2), 10% defined fetal bovine serum, heat inactivated (HyClone Laboratories Inc., Logan, UT, cat. SH30070.03HI), 50% L-WRN conditioned media (ATCC, cat. CRL-3276), 1.25 mM N-Acetyl-L-cysteine (Sigma-Aldrich, cat. A9165), 10 mM nicotinamide (Sigma-Aldrich, cat. N0636), 1X B-27 supplement (Thermo Fisher Scientific, cat. 17504044), 1X N-2 supplement (Thermo Fisher Scientific, cat. […]

[1] = second compound 0.0316 µM, first compound 0.0316 µM
[2] = second compound 0.0316 µM, first compound 0.1 µM
[3] = second compound 0.0316 µM, first compound 0.316 µM
[4] = second compound 0.0316 µM, first compound 1 µM
[5] = second compound 0.1 µM, first compound 0.0316 µM
[6] = second compound 0.1 µM, first compound 0.1 µM
[7] = second compound 0.1 µM, first compound 0.316 µM
[8] = second compound 0.1 µM, first compound 1 µM
[9] = second compound 0.316 µM, first compound 0.0316 µM
[10] = second compound 0.316 µM, first compound 0.1 µM
[11] = second compound 0.316 µM, first compound 0.316 µM
[12] = second compound 0.316 µM, first compound 1 µM
[13] = second compound 1 µM, first compound 0.0316 µM
[14] = second compound 1 µM, first compound 0.1 µM
[15] = second compound 1 µM, first compound 0.316 µM
[16] = second compound 1 µM, first compound 1 µM
[17] = second compound 3.16 µM, first compound 0.0316 µM
[18] = second compound 3.16 µM, first compound 0.1 µM
[19] = second compound 3.16 µM, first compound 0.316 µM
[20] = second compound 3.16 µM, first compound 1 µM
[21] = second compound 10 µM, first compound 0.0316 µM
[22] = second compound 10 µM, first compound 0.1 µM
[23] = second compound 10 µM, first compound 0.316 µM
[24] = second compound 10 µM, first compound 1 µM
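Further: spheroids exposed to drugs for one week before measurement.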
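Wherever viability, T/C is given: percent viability relative to DMSO vehicle control taken as 100%.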

CCCS(=O)(=O)Nc1ccc(F)c(C(=O)c2c[nH]c3ncc(-c4ccc(Cl)cc4)cc23)c1F + COC1C(OC(N)=O)C(O)C(Oc2ccc3c(O)c(NC(=O)c4ccc(O)c(CC=C(C)C)c4)c(=O)oc3c2C)OC1(C)C
IC50 (second compound 0.0316 µM): > 10 µM
IC50 (second compound 0.1 µM): > 10 µM
IC50 (second compound 0.316 µM): > 10 µM
IC50 (second compound 1 µM): > 10 µM
IC50 (second compound 3.16 µM): > 10 µM
IC50 (second compound 10 µM): > 10 µM
viability, T/C [1]: 116%
viability, T/C [2]: 94.3%
viability, T/C [3]: 107%
viability, T/C [4]: 136%
viability, T/C (second compound 0.0316 µM, first compound 3.16 µM): 107%
viability, T/C (second compound 0.0316 µM, first compound 10 µM): 69.6%
viability, T/C [5]: 111%
viability, T/C [6]: 97.4%
viability, T/C [7]: 118%
viability, T/C [8]: 105%
viability, T/C (second compound 0.1 µM, first compound 3.16 µM): 123%
viability, T/C (second compound 0.1 µM, first compound 10 µM): 63.8%
viability, T/C [9]: 93.6%
viability, T/C [10]: 99.2%
viability, T/C [11]: 120%
viability, T/C [12]: 117%
viability, T/C (second compound 0.316 µM, first compound 3.16 µM): 121%
viability, T/C (second compound 0.316 µM, first compound 10 µM): 68.8%
viability, T/C [13]: 94%
viability, T/C [14]: 98.4%
viability, T/C [15]: 99.2%
viability, T/C [16]: 107%
viability, T/C (second compound 1 µM, first compound 3.16 µM): 118%
viability, T/C (second compound 1 µM, first compound 10 µM): 67.5%
viability, T/C [17]: 108%
viability, T/C [18]: 113%
viability, T/C [19]: 116%
viability, T/C [20]: 126%
viability, T/C (second compound 3.16 µM, first compound 3.16 µM): 124%
viability, T/C (second compound 3.16 µM, first compound 10 µM): 82.8%
viability, T/C [21]: 106%
viability, T/C [22]: 112%
viability, T/C [23]: 110%
viability, T/C [24]: 118%
viability, T/C (second compound 10 µM, first compound 3.16 µM): 118%
viability, T/C (second compound 10 µM, first compound 10 µM): 83.4%

CCc1c2c(nc3ccc(O)cc13)-c1cc3c(c(=O)n1C2)COC(=O)[C@]3(O)CC + COC1C(OC(N)=O)C(O)C(Oc2ccc3c(O)c(NC(=O)c4ccc(O)c(CC=C(C)C)c4)c(=O)oc3c2C)OC1(C)C
IC50 (second compound 0.0316 µM): > 1 µM
IC50 (second compound 0.1 µM): > 1 µM
IC50 (second compound 0.316 µM): > 1 µM
IC50 (second compound 1 µM): > 1 µM
IC50 (second compound 3.16 µM): > 1 µM
IC50 (second compound 10 µM): > 1 µM
viability, T/C (second compound 0.0316 µM, first compound 0.00316 µM): 109%
viability, T/C (second compound 0.0316 µM, first compound 0.01 µM): 77.5%
viability, T/C [1]: 69.4%
viability, T/C [2]: 65.4%
viability, T/C [3]: 70.4%
viability, T/C [4]: 48.9%
viability, T/C (second compound 0.1 µM, first compound 0.00316 µM): 114%
viability, T/C (second compound 0.1 µM, first compound 0.01 µM): 91.8%
viability, T/C [5]: 64.3%
viability, T/C [6]: 64.5%
viability, T/C [7]: 66.3%
viability, T/C [8]: 57.8%
viability, T/C (second compound 0.316 µM, first compound 0.00316 µM): 91.8%
viability, T/C (second compound 0.316 µM, first compound 0.01 µM): 87.1%
viability, T/C [9]: 77.2%
viability, T/C [10]: 64.8%
viability, T/C [11]: 61.5%
viability, T/C [12]: 56.2%
viability, T/C (second compound 1 µM, first compound 0.00316 µM): 112%
viability, T/C (second compound 1 µM, first compound 0.01 µM): 92.1%
viability, T/C [13]: 77.9%
viability, T/C [14]: 62.5%
viability, T/C [15]: 64%
viability, T/C [16]: 59.4%
viability, T/C (second compound 3.16 µM, first compound 0.00316 µM): 93.9%
viability, T/C (second compound 3.16 µM, first compound 0.01 µM): 77.5%
viability, T/C [17]: 68.8%
viability, T/C [18]: 69.4%
viability, T/C [19]: 63%
viability, T/C [20]: 56.6%
viability, T/C (second compound 10 µM, first compound 0.00316 µM): 99.2%
viability, T/C (second compound 10 µM, first compound 0.01 µM): 89.3%
viability, T/C [21]: 71.7%
viability, T/C [22]: 60.9%
viability, T/C [23]: 63.6%
viability, T/C [24]: 48.8%
